{
  "source": "paper PMC11476419",
  "about": "“Analysis of Punicalin and Punicalagin Interaction with PDIA3 and PDIA1” (International Journal of Molecular Sciences, 2024)",
  "key": {"PDIA3": {"biological_target": "T1, PDIA3 (Homo sapiens, UniProt P30101)", "T1 construct": "The mature recombinant form (devoid of the N-terminal presence) of the human PDIA3 protein was expressed and purified; made in house", "T1 sequence (P30101 25-505)": "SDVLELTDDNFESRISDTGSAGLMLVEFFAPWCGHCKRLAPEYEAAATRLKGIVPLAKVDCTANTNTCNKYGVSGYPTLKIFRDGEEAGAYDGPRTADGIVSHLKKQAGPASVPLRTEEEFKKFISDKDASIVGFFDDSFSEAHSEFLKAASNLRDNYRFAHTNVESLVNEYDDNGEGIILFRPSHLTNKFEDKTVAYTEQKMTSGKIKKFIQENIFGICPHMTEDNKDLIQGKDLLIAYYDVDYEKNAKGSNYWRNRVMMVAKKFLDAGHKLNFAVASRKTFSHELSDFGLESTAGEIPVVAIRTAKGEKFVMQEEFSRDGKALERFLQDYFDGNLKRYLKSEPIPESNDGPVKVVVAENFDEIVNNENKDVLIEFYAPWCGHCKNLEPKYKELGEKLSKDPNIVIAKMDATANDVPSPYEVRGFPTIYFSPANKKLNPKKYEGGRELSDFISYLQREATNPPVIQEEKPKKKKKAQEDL", "assay": "Insulin turbidity assay, disulfide reductase activity", "assay_type": "biochemical", "settings": "insulin substrate, PDIA3 1600 nM, reducing conditions", "description": "To further evaluate the inhibitory effect of punicalin and punicalagin on the enzymatic activity of the two proteins, we performed a different assay using insulin, a physiologically more appropriate substrate. The results obtained are reported in Figure 4 and show again a lesser inhibitory effect of punicalin compared to punicalagin, as observed with the glutathione-based assay.\nPDI disulfide reductase activity was assayed by measuring the reduction of insulin catalyzed by PDIs with DTT. A 50 μM stock solution of each PDI was reduced using TCEP (5 mM final concentration) for 90 min at room temperature. Aliquots of the stock solution were diluted in the incubation mixture (PDIA1 1.6 µM and PDIA3 3.2 µM) containing sodium phosphate buffer (100 mM sodium phosphate, 2 mM EDTA, pH 7.0) added with punicalin/punicalagin (concentration ranging from 0 to 50 µM) and incubated at 37 °C for 1 h. After incubation, an equal volume of the 2× reaction mixture (consisting of DTT 50 μM and human insulin 0.32 mM) was added. Protein activity was evaluated by monitoring the increase in turbidity of the solutions at 600 nm.\nIn both assays, the inhibition constants were extrapolated by GraphPad Prism 8.0 software (GraphPad Software, San Diego, CA, USA), plotting the obtained data as logarithm dose–response curves."}, "U87 MG cells": {"tested_on": "U87 MG cells", "assay": "Cell counting (crystal violet)", "assay_type": "cell-based, human", "settings": "5 µM and 20 µM, 24 h, 48 h, 72 h", "description": "(§1) The number of cells was evaluated after 24 h, 48 h, and 72 h of treatment with punicalin at the concentration of 5 µM and 20 µM (Figure 5b). […] However, an increase in the cell number occurred after 72 h of treatment with punicalin at a 5 µM concentration.\n(§2) T98G and U-87 MG cells were seeded into 12-well plates (70,000 cells/well) and treated with 5 µM and 20 µM concentrations of punicalin for 24 h, 48 h, and 72 h. At the end of incubation, the cells were washed with PBS (Sigma-Aldrich, cat. D8662), fixed with cold methanol for 20 min, stained with 0.1% crystal violet in methanol/PBS (ratio 1:4) at room temperature for 1 h, and washed again in PBS. To estimate the number of cells remaining in each well, the crystal violet was solubilized by adding a methanol/water solution (50% v/v) and the absorbance at 595 nm was measured."}, "T98G cells": {"tested_on": "T98G cells", "assay": "Cell counting (crystal violet)", "assay_type": "cell-based, human", "description": "as §1, §2"}},
  "data": [
    {"smiles": "O=C1OC[C@H]2OC(O)[C@H](O)[C@@H](O)[C@@H]2OC(=O)c2cc(O)c(O)c(O)c2-c2c(O)c(O)c3oc(=O)c4c(c(O)c(O)c5oc(=O)c2c3c54)-c2c1cc(O)c(O)c2O", "note": "(mixture of isomers) [Punicalin, punicalin]", "values": [
      {"measurement": "IC50", "setting": "PDIA3", "result": 28.7, "unit": "µM"},
      {"measurement": "effect on cell number", "setting": "U87 MG cells", "result": "the effect is evident only at the highest concentration used"},
      {"measurement": "kind of effect on cells", "setting": "T98G cells; 5 µM", "result": "preferential cytostatic effect"},
      {"measurement": "kind of effect on cells", "setting": "T98G cells; 20 µM", "result": "cytotoxic"},
      {"measurement": "effect on cell number", "setting": "T98G cells; 48 h, 5 µM and 20 µM", "result": "marked reduction in the T98G cell number"}
    ]}
  ]
}
